This passage reports Ki results from patent publication US7915300B2, “Cysteine protease inhibitors” (Medivir AB, priority 2004, dated 2011).

Like-named read-outs stand apart in the source and are kept apart here.

The target in assay [1] is T1, cathepsin K (Homo sapiens, UniProt P43235).
T1 sequence (P43235 115-329): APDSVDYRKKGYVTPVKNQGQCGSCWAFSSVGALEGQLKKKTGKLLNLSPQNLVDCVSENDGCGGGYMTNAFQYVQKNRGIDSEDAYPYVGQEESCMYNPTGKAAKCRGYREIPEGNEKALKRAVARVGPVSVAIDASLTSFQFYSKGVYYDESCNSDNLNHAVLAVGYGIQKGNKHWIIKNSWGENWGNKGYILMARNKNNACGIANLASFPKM
The following applies: value from WO 02057270; read-out: Ki indicated in WO 02057270; cited from earlier work.

Assay [2] addresses T1, cathepsin K. The experiment in a line: Cathepsin K proteolytic activity, inhibition studies (Ki) with fluorogenic peptide substrate. The class given is biochemical. On the set-up: made in house; host or cells: not fixed: E coli, Pichia or Baculovirus systems named as options. The following applies: side by side trials in the same assay system; read-out: Cathepsin K K^1. How it is done: Convenient assays for cathepsin K are carried out using human recombinant enzyme, such as that described in PDB.
The recombinant cathepsin K can be expressed in a variety of commercially available expression systems including E coli, Pichia and Baculovirus systems. The purified enzyme is activated by removal of the prosequence by conventional methods.
Standard assay conditions for the determination of kinetic constants used a fluorogenic peptide substrate, typically H-D-Ala-Leu-Lys-AMC, and were determined in either 100 mM Mes/Tris, pH 7.0 containing 1 mM EDTA and 10 mM 2-mercaptoethanol or 100 mMNa phosphate, imM EDTA, 0.1% PEG4000 pH 6.5 or 100 mM Na acetate, pH 5.5 containing 5 mM EDTA and 20 mM cysteine, in each case optionally with […] as stabiliser. The enzyme concentration used was 5 nM. The stock substrate solution was prepared at 10 mM in DMSO. Screens were carried out at a fixed substrate concentration of 60 μM and detailed kinetic studies with doubling dilutions of substrate from 250 μM. The total DMSO concentration in the assay was kept below 3%. […] Product fluorescence (excitation at 390 nm, emission at 460 nm) was monitored with a Labsystems Fluoroskan Ascent fluorescent plate reader. […]
Potential inhibitors are screened using the above assay with variable concentrations of test compound. […] Ki values were calculated according to equation 1 […]

Consider `CC(C)CC(NC(=O)c1ccc(Oc2ccccc2)cc1)C(=O)N1CC[C@H]2OCC(=O)[C@H]21` (stereo partly drawn), for which the Ki on cathepsin K [1] is 0.1 µM; on cathepsin K [2], 0.066 µM.

On to `CC(C)CC(NC(=O)c1ccc(Oc2ccccc2)cc1)C(=O)N1C[C@H](F)[C@H]2OCC(=O)[C@H]21` (stereo partly drawn), for which, at cathepsin K [2], the Ki was 0.0053 µM.
